Measured values published in US20190240296A1, “TREATMENT OF DISEASES MEDIATED BY VASCULAR HYPERPERMEABILITY” (AMPIO PHARMACEUTICALS, INC., priority 2016, published 2019).

Tested on: acetylated α-tubulin in HREC
Experiment: Immunofluorescence staining for acetylated α-tubulin in HREC
Format: cell-based, human
Settings: 3 hours
Protocol: HREC were grown on glass bottom 24-well tissue culture plates (Cellvis, Mountain View, Calif.) coated with 2% gelatin in EGM-2. The medium was then exchanged with a combination of 500 μL saline, 2× working dilutions of compounds to be tested prepared in saline, or LMWFHSA together with 500 μl EGM-2 and incubated for the indicated times. Following treatment, the cells were fixed using 10% neutral buffered formalin for 10 minutes and permeabilized with 0.1% Triton X-100 in PBS for 5 minutes. 4% goat serum (ThermoFisher Scientific) prepared in PBS was used to block the cells for 1 hour then the cells were exposed to anti-acetylated α-tubulin clone 6-11B-1 antibody (1:1000; Santa Cruz Biotechnology, Santa Cruz, Calif.) in blocking solution overnight at 4° C. Alexa fluor 488 conjugated anti-mouse IgG (1:1000; Invitrogen, Carlsbad, Calif.) was then added for 1 hour followed by DAPI counter staining (300 nM in PBS; ThermoFisher Scientific) for 5 minutes. Randomly selected frames were photographed on an inverted microscope (Zyla sCMOS camera; Andor, South Windsor, Conn. and eclipse Ti; Nikon, Melville, N.Y.) and fluorescent intensity measured using ImageJ software (http://imagej.nih.gov/ij) (Schneider C A, et al. NIH Image to ImageJ: 25 years of image analysis. Nature methods 2012; 9:671-675). For normalization, the number of DAPI staining nuclei was determined for each frame and data presented as median FU/DAPI objects.

SMILES	increase of α-tubulin acetylation versus saline-DMSO controls (10 μM SB203580 with LMWFHSA, 95% CI 63-51) [%]	increase of α-tubulin acetylation versus LMWF5A-DMSO treated cells (10 μM SB203580 with LMWFHSA, 95% CI 236-208) [%]	inhibition at 10 µM (Homo sapiens, 10 μM LY294002 with LMWFHSA, four experiments in triplicate, 95% CI 29-19, read-out: reduction of LMWFHSA-induced α-tubulin acetylation (percent inhibition)) [%]
C[S+]([O-])c1ccc(-c2nc(-c3ccncc3)c(-c3ccc(F)cc3)[nH]2)cc1 (stereo not drawn) [SB203580]	57	222	–
O=c1cc(N2CCOCC2)oc2c(-c3ccccc3)cccc12 [LY294002]	–	–	24
